Data taken from patent publication US8658646B2, “Pyrrolopyrazine kinase inhibitors” (Hoffmann-LaRoche Inc., priority 2011, dated 2014).
Structures can show the parent of a compound that is named as a salt.

Molecular target: T1, recombinant human SYK360-635 (Homo sapiens, UniProt P43405)
T1 construct: made in house
Assay: Determination of IC50 of Spleen Tyrosine Kinase (SYK) inhibition, 33P ATP filtration assay
Format: biochemical
Conditions: SYK aa 360-635 0.5 nM; ATP 20 μM, peptide 5 μM, 0.1% BSA; read-out: SYK_ENZYME_FILTRATION/v1, BSA

| Compound | IC50 |
| --- | --- |
| Cn1nc(-c2cnc3[nH]cc(C(=O)NC(C)(C)C)c3n2)c2cc(C3CC3)ccc21 [Example I-197, 2-(5-Cyclopropyl-1-methyl-1H-indazol-3-yl)-5H-pyrrolo[2,3-b]pyrazine-7-carboxylic acid tert-butylamide] | 4.79 nM |
| Cc1cccc2c(-c3cnc4[nH]cc(C(=O)NC(C)(C)C)c4n3)n[nH]c12 [Example I-369, 2-(7-Methyl-1H-indazol-3-yl)-5H-pyrrolo[2,3-b]pyrazine-7-carboxylic acid tert-butylamide] | 8 nM |
| CCc1cccc2c(-c3cnc4[nH]cc(C(=O)NC(C)(C)C)c4n3)n[nH]c12 [Example I-355, 2-(7-Ethyl-1H-indazol-3-yl)-5H-pyrrolo[2,3-b]pyrazine-7-carboxylic acid tert-butylamide] | 3.19 nM |
| Cn1nc(-c2cnc3[nH]cc(C(=O)NC(C)(C)CO)c3n2)c2cc(C3CC3)ccc21 [Example I-196, 2-(5-Cyclopropyl-1-methyl-1H-indazol-3-yl)-5H-pyrrolo[2,3-b]pyrazine-7-carboxylic acid (2-hydroxy-1,1-dimethyl-ethyl)-amide] | 8 nM |
| Cc1ccc2c(-c3cnc4[nH]cc(C(=O)NC(C)(C)C5CC5)c4n3)nn(C)c2c1 [Example I-428, 2-(1,6-Dimethyl-1H-indazol-3-yl)-5H-pyrrolo[2,3-b]pyrazine-7-carboxylic acid (1-cyclopropyl-1-methyl-ethyl)-amide] | 11.9 nM |
| Cn1nc(-c2cnc3[nH]cc(C(=O)NC(C)(C)c4ccccc4)c3n2)c2ccc(Cl)cc21 [Example I-388, 2-(6-Chloro-1-methyl-1H-indazol-3-yl)-5H-pyrrolo[2,3-b]pyrazine-7-carboxylic acid (1-methyl-1-phenyl-ethyl)-amide] | 63.8 nM |
| COc1ccc2c(cnn2-c2cnc3[nH]cc(C(=O)NC(C)(C)C)c3n2)c1 [Example I-323, 2-(5-Methoxy-indazol-1-yl)-5H-pyrrolo[2,3-b]pyrazine-7-carboxylic acid tert-butylamide] | 25.6 nM |
| Cc1ccc2cnn(-c3cnc4[nH]cc(C(=O)NC(C)(C)C)c4n3)c2c1 [Example I-331, 2-(6-Methyl-indazol-1-yl)-5H-pyrrolo[2,3-b]pyrazine-7-carboxylic acid tert-butylamide] | 69.5 nM |
| Cn1nc(-c2cnc3[nH]cc(C(=O)N[C@@H]4CCC[C@H](N)C4)c3n2)c2ccc(Cl)cc21 (relative stereo) [Example I-277, 2-(6-Chloro-1-methyl-1H-indazol-3-yl)-5H-pyrrolo[2,3-b]pyrazine-7-carboxylic acid (cis-3-amino-cyclohexyl)-amide] | 40 nM |
| CC(C)(C)NC(=O)c1c[nH]c2ncc(-c3nccc4cc[nH]c34)nc12 [Example I-328, 2-(1H-Pyrrolo[2,3-c]pyridin-7-yl)-5H-pyrrolo[2,3-b]pyrazine-7 carboxylic acid tert-butylamide] | 970 nM |
| Cn1nc(-c2cnc3[nH]cc(C(=O)NC(C)(C)C#N)c3n2)c2ccc(Cl)cc21 [Example I-407, 2-(6-Chloro-1-methyl-1H-indazol-3-yl)-5H-pyrrolo[2,3-b]pyrazine-7-carboxylic acid (cyano-dimethyl-methyl)-amide] | 5.8 nM |
| CC(C)NC(=O)c1c[nH]c2ncc(-c3nn(CCCN(C)C)c4ccc(OC(F)F)cc34)nc12 [Example I-450] | 13.3 nM |
| Cn1nc(-c2cnc3[nH]cc(C(=O)NC(C)(C)C4CC4)c3n2)c2ccc(Cl)cc21 [Example I-401, 2-(6-Chloro-1-methyl-1H-indazol-3-yl)-5H-pyrrolo[2,3-b]pyrazine-7-carboxylic acid (1-cyclopropyl-1-methyl-ethyl)-amide] | 18.5 nM |
| Cn1nc(-c2cnc3[nH]cc(C(=O)NC(C)(C)CN)c3n2)c2ccc(F)cc21 [Example I-379, 2-(6-Fluoro-1-methyl-1H-indazol-3-yl)-5H-pyrrolo[2,3-b]pyrazine-7-carboxylic acid (2-amino-1,1-dimethyl-ethyl)-amide] | 145 nM |
| CN(C)CCCn1nc(-c2cnc3[nH]cc(C(=O)NC4(C)CC4)c3n2)c2cc(OC(F)F)ccc21 [Example I-452, 2-(5-(Difluoromethoxy)-1-(3-(dimethylamino)propyl)-1H-indazol-3-yl)-N-(1-methylcyclopropyl)-5H-pyrrolo[3,2-b]pyrazine-7-carboxamide trifluoroacetate] | 13.9 nM |
| Cn1nc(-c2cnc3[nH]cc(C(=O)NC(C)(C)C)c3n2)c2cccnc21 [Example I-373, 2-(1-Methyl-1H-pyrazolo[3,4-b]pyridin-3-yl)-5H-pyrrolo[2,3-b]pyrazine-7-carboxylic acid tert-butylamide] | 19 nM |
| C[C@@H](CO)NC(=O)c1c[nH]c2ncc(-c3n[nH]c4cc(Cl)ccc34)nc12 [Example I-419, 2-(6-Chloro-1H-indazol-3-yl)-5H-pyrrolo[2,3-b]pyrazine-7-carboxylic acid ((S)-2-hydroxy-1-methyl-ethyl)-amide] | 6.9 nM |

| Compound | IC50 |
| --- | --- |
| CC(C)NC(=O)c1c[nH]c2ncc(-c3nn(C)c4c3CCC(C)(C)C4)nc12 [Example I-279, 2-(1,6,6-Trimethyl-4,5,6,7-tetrahydro-1H-indazol-3-yl)-5H-pyrrolo[2,3-b]pyrazine-7-carboxylic acid isopropylamide] | 277 nM |
| Cn1nc(-c2cnc3[nH]cc(C(=O)NC(C)(C)CO)c3n2)c2ccc(C#N)cc21 [Example I-398, 2-(6-Cyano-1-methyl-1H-indazol-3-yl)-5H-pyrrolo[2,3-b]pyrazine-7-carboxylic acid (2-hydroxy-1,1-dimethyl-ethyl)-amide] | 12.2 nM |
| CC(C)(C)NC(=O)c1c[nH]c2ncc(-c3nn(CC(F)(F)F)c4cc(F)ccc34)nc12 [Example I-418, 2-[6-Fluoro-1-(2,2,2-trifluoro-ethyl)-1H-indazol-3-yl]-5H-pyrrolo[2,3-b]pyrazine-7-carboxylic acid tert-butylamide] | 19.9 nM |
| Cc1ccc2c(-c3cnc4[nH]cc(C(=O)NC(C)(C)CO)c4n3)nn(CC(=O)N3CCOCC3)c2c1 [Example I-439, 2-[6-Methyl-1-(2-morpholin-4-yl-2-oxo-ethyl)-1H-indazol-3-yl]-5H-pyrrolo[2,3-b]pyrazine-7-carboxylic acid (2-hydroxy-1,1-dimethyl-ethyl)-amide] | 9.7 nM |
| Cn1nc(-c2cnc3[nH]cc(C(=O)NC(C)(C)C)c3n2)c2c1CCCCC2 [Example I-272, 2-(1-Methyl-1,4,5,6,7,8-hexahydro-cycloheptapyrazol-3-yl)-5H-pyrrolo[2,3-b]pyrazine-7-carboxylic acid tert-butylamide] | 75.3 nM |
| CNCCCn1nc(-c2cnc3[nH]cc(C(=O)NC(C)(C)C)c3n2)c2cc(OC(F)F)ccc21 [Example I-345, 2-[5-Difluoromethoxy-1-(3-methylamino-propyl)-1H-indazol-3-yl]-5H-pyrrolo[2,3-b]pyrazine-7-carboxylic acid tert-butylamide] | 5.12 nM |
| Cn1nc(-c2cnc3[nH]cc(C(=O)NC4(C)CNC4)c3n2)c2ccc(F)cc21 [Example I-409, 2-(6-Fluoro-1-methyl-1H-indazol-3-yl)-5H-pyrrolo[2,3-b]pyrazine-7-carboxylic acid (3-methyl-azetidin-3-yl)-amide] | 317 nM |
| CCNC(=O)c1c[nH]c2ncc(-c3nn(CCCN(C)C)c4ccc(OC(F)F)cc34)nc12 [Example I-453, 2-(5-(Difluoromethoxy)-1-(3-(dimethylamino)propyl)-1H-indazol-3-yl)-N-ethyl-5H-pyrrolo[3,2-b]pyrazine-7-carboxamide trifluoroacetate] | 85.7 nM |
| CC(C)(C)NC(=O)c1c[nH]c2ncc(-c3nn(CC(=O)N4CCOCC4)c4cc(F)ccc34)nc12 [Example I-251, 2-[6-Fluoro-1-(2-morpholin-4-yl-2-oxo-ethyl)-1H-indazol-3-yl]-5H-pyrrolo[2,3-b]pyrazine-7-carboxylic acid tert-butylamide] | 14.3 nM |
| CCn1nc(-c2cnc3[nH]cc(C(=O)NC(C)C)c3n2)c2ccc(Cl)cc21 [Example I-307, 2-(6-Chloro-1-ethyl-1H-indazol-3-yl)-5H-pyrrolo[2,3-b]pyrazine-7-carboxylic acid isopropylamide] | 32.6 nM |
| CC(C)(C)NC(=O)c1c[nH]c2ncc(-c3nn(C4CCNCC4)c4ccc(OC(F)F)cc34)nc12 [Example I-261, 2-(5-Difluoromethoxy-1-piperidin-4-yl-1H-indazol-3-yl)-5H-pyrrolo[2,3-b]pyrazine-7-carboxylic acid tert-butylamide] | 1.83 nM |
| Cc1ccc2c(-c3cnc4[nH]cc(C(=O)NC5(C)CCNC5)c4n3)n[nH]c2c1 (stereo not shown) [Example I-431, 2-(6-Methyl-1H-indazol-3-yl)-5H-pyrrolo[2,3-b]pyrazine-7-carboxylic acid (3-methyl-pyrrolidin-3-yl)-amide] | 20.7 nM |
| Cn1nc(-c2cnc3[nH]cc(C(=O)NC4(C)CCC4)c3n2)c2ccc(F)cc21 [Example I-376, 2-(6-Fluoro-1-methyl-1H-indazol-3-yl)-5H-pyrrolo[2,3-b]pyrazine-7-carboxylic acid (1-methyl-cyclobutyl)-amide] | 2.82 nM |
| CC(O)CCn1nc(-c2cnc3[nH]cc(C(=O)NC(C)(C)C)c3n2)c2cc(OC(F)F)ccc21 (stereo not shown) [Example I-447, N-tert-Butyl-2-(5-(difluoromethoxy)-1-(3-hydroxybutyl)-1H-indazol-3-yl)-5H-pyrrolo[3,2-b]pyrazine-7-carboxamide] | 2.7 nM |
| CC(C)c1ccc2c(c1)c(-c1cnc3[nH]cc(C(=O)NC(C)(C)C)c3n1)nn2C [Example I-458, N-tert-Butyl-2-(5-isopropyl-1-methyl-1H-indazol-3-yl)-5H-pyrrolo[2,3-b]pyrazine-7-carboxamide] | 15.1 nM |
| Cn1nc(-c2cnc3[nH]cc(C(=O)NC(C)(C)C)c3n2)c2ccc(OC(F)(F)F)cc21 [Example I-370, 2-(1-Methyl-6-trifluoromethoxy-1H-indazol-3-yl)-5H-pyrrolo[2,3-b]pyrazine-7-carboxylic acid tert-butylamide] | 41 nM |
| CC(O)C(C)(C)NC(=O)c1c[nH]c2ncc(-c3nn(C)c4cc(Cl)ccc34)nc12 (stereo not shown) [Example I-413, 2-(6-Chloro-1-methyl-1H-indazol-3-yl)-5H-pyrrolo[2,3-b]pyrazine-7-carboxylic acid (2-hydroxy-1,1-dimethyl-propyl)-amide] | 34.6 nM |
